Results published in publication PMC7163368 (British Journal of Clinical Pharmacology, 2020).
Several values for one entry are separate records, joined by “and”; a condition that tells them apart may be missing. Equal entries are not always repeated.

Assays:
DPP‐IV = DPP‐IV (Homo sapiens, UniProt P27487); assay: Plasma DPP-IV activity; assay type: in vivo; conditions: for Post‐dose DPP‐IV activity over 24 hours: day 0, mean
[1] = 28‐day toxicity study in rats; cited from earlier work
[2] = 30 mg i.v. (n = 5), day 0, mean (SD)
[3] = 30 mg s.c. (n = 5), day 0, mean (SD)
[4] = 60 mg s.c. (n = 10), day 0, mean (SD)
[5] = 90 mg s.c. (n = 10), day 0, mean (SD)

Sequence of DPP‐IV (P27487 39-766): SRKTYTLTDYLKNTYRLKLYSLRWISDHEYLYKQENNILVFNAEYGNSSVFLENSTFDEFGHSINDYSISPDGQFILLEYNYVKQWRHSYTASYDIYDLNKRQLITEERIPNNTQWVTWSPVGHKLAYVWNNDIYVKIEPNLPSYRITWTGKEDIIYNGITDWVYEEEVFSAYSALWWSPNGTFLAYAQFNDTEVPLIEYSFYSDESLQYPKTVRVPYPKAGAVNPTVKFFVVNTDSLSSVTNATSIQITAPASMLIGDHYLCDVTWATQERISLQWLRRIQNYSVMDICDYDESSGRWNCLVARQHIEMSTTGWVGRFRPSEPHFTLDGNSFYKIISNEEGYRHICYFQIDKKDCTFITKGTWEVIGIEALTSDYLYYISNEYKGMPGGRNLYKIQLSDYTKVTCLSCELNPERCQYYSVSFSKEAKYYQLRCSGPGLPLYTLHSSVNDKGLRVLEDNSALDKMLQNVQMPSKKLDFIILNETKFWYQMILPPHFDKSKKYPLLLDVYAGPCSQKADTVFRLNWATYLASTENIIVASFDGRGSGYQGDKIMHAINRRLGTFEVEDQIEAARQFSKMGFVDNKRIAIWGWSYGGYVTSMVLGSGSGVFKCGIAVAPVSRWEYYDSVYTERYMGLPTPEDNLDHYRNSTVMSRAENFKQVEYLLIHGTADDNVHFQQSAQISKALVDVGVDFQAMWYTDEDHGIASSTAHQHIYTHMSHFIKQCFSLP

O=C(CN[C@@H]1CCNC1)N1CCC[C@H]1B(O)O [dutogliptin]
Post‐dose DPP‐IV activity over 24 hours (DPP‐IV; 30 mg i.v. (n = 5)): 37.83% | AUEC0‐24h (DPP‐IV; [2]): 908 (149) %*h | Lowest DPP‐IV activity (DPP‐IV; [2]): 7.63 (0.95) % | Time to maximum DPP‐IV inhibition (DPP‐IV; 30 mg intravenous): 0.5 h | Post‐dose DPP‐IV activity over 24 hours (DPP‐IV; 30 mg s.c. (n = 5)): 35.36% | AUEC0‐24h (DPP‐IV; [3]): 849 (74) %*h | Lowest DPP‐IV activity (DPP‐IV; [3]): 8.03 (1.76) % | Time to lowest DPP‐IV activity (DPP‐IV; 30 mg subcutaneous): ≤ 2 h | Post‐dose DPP‐IV activity over 24 hours (DPP‐IV; 60 mg s.c. (n = 10)): 22.42% | AUEC0‐24h (DPP‐IV; [4]): 538 (44) %*h | Lowest DPP‐IV activity (DPP‐IV; [4]): 7.67 (1.18) % | Time to lowest DPP‐IV activity (DPP‐IV; 60 mg subcutaneous): ≤ 2 h | Post‐dose DPP‐IV activity over 24 hours (DPP‐IV; 90 mg s.c. (n = 10)): 20.46% | AUEC0‐24h (DPP‐IV; [5]): 491 (86) %*h | Lowest DPP‐IV activity (DPP‐IV; [5]): 7.58 (1.17) % | Time to lowest DPP‐IV activity (DPP‐IV; 90 mg subcutaneous): ≤ 4 h | Post‐dose DPP‐IV activity over 24 hours (DPP‐IV; 120 mg s.c. (n = 10)): 17.96% | AUEC0‐24h (DPP‐IV; 120 mg s.c. (n = 10), day 0, mean (SD)): 431 (93) %*h | DPP‐IV inhibition over 24 hours (DPP‐IV; 120 mg s.c. multiple doses, day 6): 86% and > 86% | Maximum AUEC0‐24h (DPP‐IV; 120 mg s.c. multiple dosing cohort, day 6, SD: 73): 342 h % | Time to lowest DPP‐IV activity (DPP‐IV; 120 mg subcutaneous): ≤ 4 h | DPP‐IV activity reduced to (DPP‐IV; all participants receiving 60 mg or more subcutaneously): < 10% | Maximum DPP‐IV inhibition (DPP‐IV; all subjects receiving ≥60 mg): > 90% | Lowest DPP‐IV activity (DPP‐IV; day 0, subcutaneous administration overall, SD: 1.60): 7.19% | No observed adverse effects level [1]: 30 mg/kg
